According to US20150307519A1, “SMALL MOLECULES FOR RESTORING FUNCTION TO P53 CANCER MUTANTS” (THE REGENTS OF THE UNIVERSITY OF CALIFORNIA, priority 2014, published 2015):

How the values were obtained:
[1] = target: T1, WT DBD (wild-type p53 DBD protein) (Homo sapiens, UniProt P04637); experiment: DSF thermal stabilization of WT DBD; type: binding; details: DSF assay
T1 construct: wild-type p53 protein DBD protein (residues 94-312 of the full length); made in house; host or cells: Escherichia coli Rosetta 2 (DE3), vector pSE420
Experimental: (§1) To determine whether this stabilization was specific for copper, NSC319725 was also tested after addition of Fe(II)Cl2 and ZnCl2. […] NSC635448, […] were also tested for stabilization of G245S DBD and WT DBD in the DSF assay, yielding analogous results.
(§2) An equivalent volume of DMSO was used as a control. […] Sypro Orange stain (Bio-Rad, Hercules, Calif.) at 5,000× stock concentration was diluted to 5× concentration in 20 mM HEPES at pH 7.4 and added to each well of a 96-well plate. All SLS compounds were independently measured for fluorescence background to eliminate false positive results. […] All DSF assays were performed with a Touch RT-PCR system CFX96 (Bio-Rad) with the starting temperature of 4° C. by increasing the temperature of the plate 1.0° C. per min to 94° C. Fluorescence measurements were taken once every minute during all experiments. Tm values for each well, mean Tm values, and 95% confidence intervals were calculated with the program Prism 5 (GraphPad Software, La Jolla, Calif.) by fitting the raw fluorescence data to a Boltzmann sigmoidal curve.

[2] = system: Saos-2 cells expressing p53^G245S; experiment: Cell count / viability of Saos-2 cells with doxycyclin-inducible p53 G245S; type: cell-based; details: FIGS. 5A-5C; for p53 G245S-dependent cancer cell cytotoxicity: 27 hours
Description: ACS chemical biology, doi:10.1021/cb3005929 (2013).

[3] = target: T2, G245S DBD (Homo sapiens, UniProt P04637, G245S); experiment: DSF thermal stabilization of G245S DBD; type: binding; details: DSF assay
T2 construct: wild-type p53 protein DBD protein (residues 94-312 of the full length)
Experimental: as §1, §2

Row | Structure (SMILES) | effect on Tm of WT DBD (qualitative) [1] | p53 G245S-dependent cancer cell cytotoxicity [2] | reactivation of p53^G245S in cells [2] | effect on Tm of G245S DBD (qualitative) [3]
1 | NS(=O)(=O)c1nc2nc[nH]c(=O)c2[nH]1 [NSC635448] | increased the Tm | marked | marked efficacy | increased the Tm
2 | C/C(=N\NC(=S)N(C)C)c1ccccn1 [NSC319725, reference compound] | no effect or a slight destabilization | marked |  | no effect or a slight destabilization
3 | Cn1ncc2c(Nc3ccc(Br)cc3)nc(Nc3ccc(Br)cc3)nc21 [NSC11667] |  |  | marked efficacy | 
